Assay results from ChEMBL document CHEMBL1201862, “PubChem BioAssay data set” (2004).
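Grown in 96-well plates, cells were treated for 48 hours with each compound at five concentrations. Insufficient inhibition: endpoint recorded as highest concentration tested. At the GI50, growth is halved.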 Activity calls are given as the source filed them. Cut-off read from the data, not from the text of the source: active = GI50 up to about 1.1 µM and inactive = higher.

Tests used:
Experiment in all cases: growth of human tumour cells (NCI), 48 h
[1] = system: M14
[2] = system: SK-MEL-28
[3] = system: DMS-114
[4] = system: OVCAR-3
[5] = system: UO-31
[6] = system: COLO 205
[7] = system: UACC-62
[8] = system: A549
[9] = system: TK-10
[10] = system: LOX IMVI
[11] = system: NCI-H23
[12] = system: K562
[13] = system: RPMI-8226
[14] = system: SF-539
[15] = system: NCI-H522
[16] = system: Malme-3M
[17] = system: SN12C
[18] = system: ACHN
[19] = system: LXFL 529
[20] = system: UACC-257
[21] = system: MOLT-4
[22] = system: HOP-18
[23] = system: HCT-116
[24] = system: SW-620
[25] = system: OVCAR-4
[26] = system: 786-0
[27] = system: SK-MEL-2
[28] = system: HCT-15
[29] = system: HOP-62
[30] = system: DLD-1
[31] = system: U-251
[32] = system: CAKI-1
[33] = system: A498
[34] = system: SF-295
[35] = system: SR
[36] = system: CCRF-CEM
[37] = system: HT-29
[38] = system: HOP-92
[39] = system: OVCAR-8
[40] = system: IGROV-1
[41] = system: KM-20L2
[42] = system: SNB-19
[43] = system: HL-60
[44] = system: SK-OV-3
[45] = system: KM12
[46] = system: OVCAR-5
[47] = system: M19-MEL
[48] = system: NCI-H226
[49] = system: SF-268
[50] = system: SNB-78
[51] = system: SNB-75
[52] = system: SK-MEL-5
[53] = system: NCI-H460
[54] = system: HCC 2998
[55] = system: EKVX
[56] = system: XF498
[57] = system: DMS-273

Measured: GI50

O=C(Nc1c(O)[nH]c(=S)[nH]c1=O)c1ccccc1
inactive: [1] > 100 µM | [2] > 100 µM | [3] > 100 µM | [4] > 100 µM | [5] > 100 µM | [6] > 100 µM | [7] > 100 µM | [8] > 100 µM | [9] > 100 µM | [10] > 100 µM | [11] > 100 µM | [12] > 100 µM | [13] > 100 µM | [14] > 100 µM | [15] > 100 µM | [16] > 100 µM | [17] > 100 µM | [18] > 100 µM | [19] > 100 µM | [20] > 100 µM | [21] > 100 µM | [22] > 100 µM | [23] > 100 µM | [24] > 100 µM | [25] > 100 µM | [26] > 100 µM | [27] > 100 µM | [29] > 100 µM | [30] > 100 µM | [31] > 100 µM | [32] > 100 µM | [33] > 100 µM | [34] > 100 µM | [35] > 100 µM | [36] > 100 µM | [37] > 100 µM | [38] > 100 µM | [39] > 100 µM | [40] > 100 µM | [41] > 100 µM | [42] > 100 µM | [43] > 100 µM | [44] > 100 µM | [45] > 100 µM | [46] > 100 µM | [47] > 100 µM | [48] > 100 µM | [49] > 100 µM | [50] > 100 µM | [51] > 100 µM | [52] > 100 µM | [53] > 100 µM
> 100 µM: [28]

CC(C)OP(=O)(OC(C)C)/C(I)=N/Nc1ccc([N+](=O)[O-])cc1
inactive: [1] > 100 µM | [2] > 100 µM | [3] > 100 µM | [4] > 100 µM | [5] 98.4 µM | [6] > 100 µM | [7] > 100 µM | [8] > 100 µM | [9] > 100 µM | [11] > 100 µM | [12] > 100 µM | [13] > 100 µM | [14] > 100 µM | [15] > 100 µM | [16] > 100 µM | [54] > 100 µM | [17] > 100 µM | [18] > 100 µM | [19] > 100 µM | [20] > 100 µM | [21] > 100 µM | [23] > 100 µM | [24] > 100 µM | [25] > 100 µM | [27] > 100 µM | [29] > 100 µM | [30] > 100 µM | [31] > 100 µM | [32] > 100 µM | [55] > 100 µM | [33] > 100 µM | [34] > 100 µM | [35] > 100 µM | [36] > 100 µM | [37] > 100 µM | [38] > 100 µM | [39] > 100 µM | [40] > 100 µM | [41] > 100 µM | [42] > 100 µM | [43] > 100 µM | [44] > 100 µM | [45] > 100 µM | [46] > 100 µM | [47] > 100 µM | [49] > 100 µM | [50] > 100 µM | [51] > 100 µM | [56] > 100 µM | [57] > 100 µM | [52] > 100 µM | [53] > 100 µM
> 100 µM: [28]

CC[C@@]1(O)C[C@H](OC2CC(N(C)C)C(OC3CC(O)C(OC4CCC(=O)C(C)O4)C(C)O3)C(C)O2)c2c(cc3c(c2O)C(=O)c2c(O)cccc2C3=O)[C@H]1C(=O)OC (some centres undefined)
active: [13] 0.0278 µM | [19] 0.00904 µM | [22] 0.0736 µM | [30] 0.0327 µM | [36] 0.0184 µM | [37] 0.0147 µM | [41] 0.0128 µM | [43] 0.0317 µM
